These results are taken from patent US10869931B2, “Polyethylene glycol-modified angiogenesis inhibitor HM-1 and application thereof” (NANJING ANJI BIOLOGICAL TECHNOLOGY CO.,LTD, priority 2016, dated 2020).

Where “and” joins values, the source holds several entries; their conditions need not be identical. Identical values can stand only once. Marks after values point to notes of the source that are not given here. Where no end group is shown, it is not given here.

Assay [1] deals with Esophageal cancer tumor cells. In words: MTT proliferation inhibition, esophageal cancer cells. The assay is classed as cell-based, human. Further details: concentration or dose not given beside the values. The following applies: 48 h. Put shortly:
(§1)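 Tumour cells plated at 2×10^4 cells/mL, attached overnight, then exposed to dilutions of mPEG-HM-1 for 48 h at 37 °C, 5% CO2. MTT added 4 h, formazan dissolved in DMSO, absorbance 570/630 nm; growth inhibition = 1 − treated/untreated, three independent repeats, mean±SD.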

Assay [2] deals with collagen induced arthritis (CIA) in DBA/1 mice. In words: Collagen-induced mouse arthritis (CIA) model. Conditions: for Joint swelling / Left and right paw swelling / Clinical score: CIA DBA/1 mice; for Clinical score: maximum score 16; for limbs score (in words): CIA mice, subcutaneous, once every three days, vs model control group. The assay is classed as in vivo.
Assay [3] concerns carrageenan-induced toe swelling in SD rats. Briefly: Carrageenan-induced acute toe swelling in rats. The assay is classed as in vivo, rat. Further details: Swelling: unit not given here. The following applies: for inhibition of carrageenan-induced toe swelling (in words): rats, 40 mg/kg, once a day for 3 days. Put shortly: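 SD rats dosed with mPEG-HM-1 once daily for 3 days […]; 1 h after last dose, 0.1 mL 1% carrageenan injected subcutaneously into right hind paw. Paw volume measured by liquid displacement at 1, 3, 5 and 7 h; swelling = post- minus pre-inflammation volume (mL).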

Assay [4] relates to choroidal neovascularization in BN rats. Briefly: Laser-induced choroidal neovascularization in BN rats (FFA). It counts as in vivo, rat. Put shortly:
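Male BN rats (6–8 weeks) received 8 laser photocoagulation spots per eye around the optic disc (647.1 nm, 350 mW, 50 μm, 0.05 s). Confirmed models, 5 per group, were given saline or PEG-modified HM-1 intravitreally once daily for 1 week. FFA was done 3, 7, 14 and 28 days after dosing.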

Assay [5] concerns retinal neovascular clusters in OIR C57/B16 mice. Briefly: Retinal blood vessels in OIR mice. It counts as in vivo, mouse. The following applies: for Neovascular clusters area: retina evaluated on day 17; for Inhibition rate: neovascular clusters area vs control, day 17; for inhibition rate of retinal neovascular clusters: OIR mice, 50 μg intravitreal injection, evaluated day 17. In outline: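 C57/B16 pups and mothers were held in 75% oxygen from postnatal day 7 to 12, then returned to room air. On day 13 the PEGylated HM-1 conjugates or saline were given by intravitreal injection; on day 17 retinal vessels were assessed after intracardiac Texas Red-tomato lectin, circulated 5 min.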

The test system of assay [6] is Colorectal cancer tumor cells. In words: MTT proliferation inhibition, colorectal cancer cells. It counts as cell-based, human. Also on record: concentration or dose not given beside the values. Conditions: 48 h. Put shortly:
as §1

Where [7] appears, read: 80 mg/kg subcutaneous from day 30 of modeling.
[8] abbreviates: 10 mg/kg subcutaneous from day 30 of modeling.
[9] abbreviates: 20 mg/kg once a day for 3 days, 1 h after carrageenan.
Setting [10] is: 20 mg/kg once a day for 3 days, 3 h after carrageenan.
[11] abbreviates: 20 mg/kg once a day for 3 days, 5 h after carrageenan.
The mark [12] stands for this setting: 20 mg/kg once a day for 3 days, 7 h after carrageenan.
[13] abbreviates: 20 mg/kg subcutaneous from day 30 of modeling.
Setting [14] is: Day 3 after administration, 50 μg intravitreally once daily for 1 week (Table 53).
[15] abbreviates: Day 3 after administration, 50 μg intravitreally once daily for 1 week (Table 53), total spots 290-296 by table.
Setting [16] is: Day 7, 50 μg intravitreally once daily for 1 week (Table 53).
[17] abbreviates: Day 7, 50 μg intravitreally once daily for 1 week (Table 53), total spots 182-188 by table.
Where [18] appears, read: Day 14, 50 μg intravitreally once daily for 1 week (Table 53).
Where [19] appears, read: Day 14, 50 μg intravitreally once daily for 1 week (Table 53), total spots 132-138 by table.
Setting [20] is: Day 28, 50 μg intravitreally once daily for 1 week (Table 53).
Where [21] appears, read: Day 28, 50 μg intravitreally once daily for 1 week (Table 53), total spots 67-71 by table.
Where [22] appears, read: 50 μg intravitreal injection on day 13.

For “mPEG-SC40k-Arg-Gly-Ala-Asp-Arg-Ala-Gly-Gly-Gly-Gly-Arg-Gly-Asp ({mPEG‑SC 40 kDa}-RGADRAGGGGRGD) [mPEG-SC40k-HM-1]”, the “rate of growth inhibition” value is on record as 52.12 ± 12.35% in assay [1] and 62.45 ± 19.22% in assay [6]. Moreover, the Joint swelling in assay [2] (setting [7]) is 0.80 ± 0.16 mm. Besides, the “Left and right paw swelling” value in assay [2] (setting [7]) amounted to 0.80 ± 0.16 mm. This substance came in with a Clinical score in assay [2] (setting [7]) of 9.09 ± 1.33. The Swelling in assay [3] (80 mg/kg once a day for 3 days, 1 h after carrageenan) is on record as 0.25 ± 0.13; in assay [3] (80 mg/kg once a day for 3 days, 3 h after carrageenan) it was 0.34 ± 0.12; in assay [3] (80 mg/kg once a day for 3 days, 5 h after carrageenan), 0.44 ± 0.15; in assay [3] (80 mg/kg once a day for 3 days, 7 h after carrageenan) it was 0.34 ± 0.16; in assay [3] (160 mg/kg once a day for 3 days, 1 h after carrageenan), 0.24 ± 0.12; in assay [3] (160 mg/kg once a day for 3 days, 3 h after carrageenan), 0.33 ± 0.13. Besides, the Swelling in assay [3] (160 mg/kg once a day for 3 days, 5 h after carrageenan) stood at 0.43 ± 0.12; in assay [3] (160 mg/kg once a day for 3 days, 7 h after carrageenan), 0.33 ± 0.13. Also, the “CNV Incidence rate” value in assay [4] (Day 3 after administration, 200 μg intravitreally once daily for 1 week (Table 53)) is 50.68%; in assay [4] (Day 7, 200 μg intravitreally once daily for 1 week (Table 53)), 50.00%; in assay [4] (Day 14, 200 μg intravitreally once daily for 1 week (Table 53)) it was 44.44%; in assay [4] (Day 28, 200 μg intravitreally once daily for 1 week (Table 53)) it was 43.28%. For the same substance, the “leakage Spots #” value came to 150 in assay [4] (Day 3 after administration, 200 μg intravitreally once daily for 1 week (Table 53), total spots 290-296 by table); 94 in assay [4] (Day 7, 200 μg intravitreally once daily for 1 week (Table 53), total spots 182-188 by table); 60 in assay [4] (Day 14, 200 μg intravitreally once daily for 1 week (Table 53), total spots 132-138 by table); 29 in assay [4] (Day 28, 200 μg intravitreally once daily for 1 week (Table 53), total spots 67-71 by table). Moreover, the Neovascular clusters area in assay [5] (200 μg intravitreal injection on day 13) was determined as 0.119 ± 0.005 mm^2. This substance also displayed an Inhibition rate in assay [5] (200 μg intravitreal) of 46.18%*.

With “mPEG-SC5k-Arg-Gly-Ala-Asp-Arg-Ala-Gly-Gly-Gly-Gly-Arg-Gly-Asp ({mPEG‑SC 5 kDa}-RGADRAGGGGRGD) [mPEG-SC5k-HM-1]”, the “rate of growth inhibition” value in assay [1] worked out at 44.38 ± 10.72%; in assay [6] it was 55.35 ± 12.82%. In assay [2] (setting [8]), the Joint swelling was 0.81 ± 0.12 mm. For the same substance, the “Left and right paw swelling” value in assay [2] (setting [8]) worked out at 0.79 ± 0.11 mm. In assay [2] (setting [8]), this substance came in with a Clinical score of 9.10 ± 1.27. In addition, the Swelling is recorded as 0.24 ± 0.12 in assay [3] (10 mg/kg once a day for 3 days, 1 h after carrageenan); 0.37 ± 0.14 in assay [3] (10 mg/kg once a day for 3 days, 3 h after carrageenan); 0.42 ± 0.16 in assay [3] (10 mg/kg once a day for 3 days, 5 h after carrageenan); 0.32 ± 0.13 in assay [3] (10 mg/kg once a day for 3 days, 7 h after carrageenan); 0.23 ± 0.10 in assay [3] (setting [9]); 0.33 ± 0.20 in assay [3] (setting [10]). The values for the Swelling in assay [3] (setting [11]) and in assay [3] (setting [12]) were 0.38 ± 0.13 and 0.34 ± 0.15, respectively. The “CNV Incidence rate” value in assay [4] (Day 3 after administration, 25 μg intravitreally once daily for 1 week (Table 53)) is listed as 54.73%; in assay [4] (Day 7, 25 μg intravitreally once daily for 1 week (Table 53)), 53.19%; in assay [4] (Day 14, 25 μg intravitreally once daily for 1 week (Table 53)), 48.15%; in assay [4] (Day 28, 25 μg intravitreally once daily for 1 week (Table 53)) it was 47.76%. Moreover, the “leakage Spots #” value in assay [4] (Day 3 after administration, 25 μg intravitreally once daily for 1 week (Table 53), total spots 290-296 by table) is reported as 162; in assay [4] (Day 7, 25 μg intravitreally once daily for 1 week (Table 53), total spots 182-188 by table), 100; in assay [4] (Day 14, 25 μg intravitreally once daily for 1 week (Table 53), total spots 132-138 by table) it was 65; in assay [4] (Day 28, 25 μg intravitreally once daily for 1 week (Table 53), total spots 67-71 by table) it was 32. The substance also registered a Neovascular clusters area in assay [5] (25 μg intravitreal injection on day 13) of 0.116 ± 0.012 mm^2. In assay [5] (25 μg intravitreal), this substance registered an Inhibition rate of 47.42%*.

Turning to “mPEG-bALD10k-Arg-Gly-Ala-Asp-Arg-Ala-Gly-Gly-Gly-Gly-Arg-Gly-Asp ({mPEG‑bALD 10 kDa}-RGADRAGGGGRGD) [mPEG-bALD10k-HM-1]”, the “rate of growth inhibition” value in assay [1] worked out at 64.92 ± 12.17%; in assay [6], 75.62 ± 18.03%. Also, the Joint swelling in assay [2] (setting [13]) turned out to be 0.74 ± 0.12 mm. Besides, in assay [2] (setting [13]), the “Left and right paw swelling” value is given as 0.71 ± 0.12 mm. For the same substance, in assay [2] (setting [13]), the Clinical score amounted to 8.69 ± 1.38. Also, the “limbs score (in words)” value in assay [2] is given as “significantly lower than that of the model control group”. In addition, in assay [3], the “inhibition of carrageenan-induced toe swelling (in words)” value was “most effective”. For the same substance, the “CNV Incidence rate” value in assay [4] (setting [14]) is on record as 48.46%; in assay [4] (setting [16]), 46.49%; in assay [4] (setting [18]) it was 42.03%; in assay [4] (setting [20]), 39.13%. Besides, the “leakage Spots #” value is recorded as 142 in assay [4] (setting [15]), 86 in assay [4] (setting [17]), 58 in assay [4] (setting [19]) and 27 in assay [4] (setting [21]). This substance also had a Neovascular clusters area in assay [5] (setting [22]) of 0.083 ± 0.006 mm^2. In assay [5] (50 μg intravitreal), this substance registered an Inhibition rate of 62.35%**. In assay [5], the “inhibition rate of retinal neovascular clusters” value was 62.35%.

“mPEG-ALD10k-Arg-Gly-Ala-Asp-Arg-Ala-Gly-Gly-Gly-Gly-Arg-Gly-Asp ({mPEG‑ALD 10 kDa}-RGADRAGGGGRGD) [mPEG-ALD10k-HM-1]”: the “rate of growth inhibition” value turned out to be 65.18 ± 15.16% in assay [1] and 80.22 ± 20.03% in assay [6]. Moreover, the Joint swelling in assay [2] (setting [13]) is on record as 0.73 ± 0.15 mm. Also, the “Left and right paw swelling” value in assay [2] (setting [13]) amounted to 0.70 ± 0.14 mm. The same substance yielded a Clinical score in assay [2] (setting [13]) of 8.65 ± 1.33. In addition, the “limbs score (in words)” value in assay [2] is “significantly lower than that of the model control group”. The Swelling came out at 0.24 ± 0.12 in assay [3] (setting [9]); 0.36 ± 0.13 in assay [3] (setting [10]); 0.42 ± 0.15 in assay [3] (setting [11]); 0.32 ± 0.10 in assay [3] (setting [12]); 0.21 ± 0.10 in assay [3] (40 mg/kg once a day for 3 days, 1 h after carrageenan); 0.31 ± 0.20 in assay [3] (40 mg/kg once a day for 3 days, 3 h after carrageenan). Besides, the Swelling amounted to 0.36 ± 0.13 in assay [3] (40 mg/kg once a day for 3 days, 5 h after carrageenan) and 0.33 ± 0.12 in assay [3] (40 mg/kg once a day for 3 days, 7 h after carrageenan). Also, the “inhibition of carrageenan-induced toe swelling (in words)” value in assay [3] was “most effective”. In assay [4] (BN rats, 28 days after administration, intravitreal once daily for 1 week), the “incidence of CNV” value was 39.44% and 39.13%. For the same substance, the “CNV Incidence rate” value is recorded as 48.62% in assay [4] (setting [14]), 46.15% in assay [4] (setting [16]), 41.67% in assay [4] (setting [18]) and 39.44% in assay [4] (setting [20]). For the same substance, the “leakage Spots #” value in assay [4] (setting [15]) stood at 141; in assay [4] (setting [17]), 84; in assay [4] (setting [19]), 55; in assay [4] (setting [21]), 28. For the same substance, the Neovascular clusters area in assay [5] (setting [22]) worked out at 0.085 ± 0.007 mm^2. Moreover, the Inhibition rate in assay [5] (50 μg intravitreal) stood at 61.75%**. Besides, the “inhibition rate of retinal neovascular clusters” value in assay [5] is reported as 61.75%.
